One data set concerns HeLa/DDP cells. Briefly: MTT assay, cisplatin-resistant HeLa/DDP cells. It is filed as cell-based, human. The following applies: for RI (resistance index): HeLa/DDP versus HeLa; for IC50: Homo sapiens, 48 h, read-out: 48h IC50 HeLa/DDP.
Data set [1] has as its system HeLa cells. The data set can be described thus: MTT antiproliferative assay, HeLa cells. It is filed as cell-based, human. The following applies: Homo sapiens, 48 h. The procedure:
(§1) HeLa and SiHa cell lines were obtained from the Procell Life Science Technology Co., Ltd. (Wuhan, China); H8 cell line was obtained from the Shanghai HonSun Biological Technology Co., Ltd. (Shanghai, China); HUVEC cell line was obtained from the Saibaikang (Shanghai) Biotechnology Co., Ltd. (Shanghai, China); HeLa/DDP cell line was obtained from the Guangzhou Jenniobio Biotechnology Co., Ltd. (Guangzhou, China). HeLa, SiHa, H8, and HeLa/DDP cells were cultured in DMEM medium (HyClone). The VEGF of 50 ng/mL was used as the promoter of the VEGFR-2 receptor on HUVEC cell membrane surfaces, and their inhibitory effects on VEGFR-2 were determined. All the mediums were supplemented with 10% FBS (HyClone, GE Healthcare, Australia). Cells were maintained at subconfluency at 37 °C in humidified air containing 5% CO2. The cells were monitored daily and maintained at 80% cell density. All compounds tested were dissolved in DMSO and then diluted by the culture medium before the treatment of cultured cells. Identification reports are available for all types of cell lines involved in this study.
(§2) The cytotoxicity of the target compounds were measured in vitro using the MTT assay. Cells grown in the logarithmic phase were counted and seeded in 96-well cell culture plates (5 × 10^3 cells per well) for 24 h to allow attachment of cells to the wall of the plate. […] Next, 20 μL of 5 mg.mL^−1 MTT solution was added to each well and cultured for 4 h. The old solution was discarded, replaced with 150 μL DMSO solution per well, and shaken for 10 min. The OD value was measured under 490 nm, and the inhibition rate was calculated. The nonlinear regression fitting of the cell growth rate was carried out using SPSS 23.0 software, and the IC50 of the compound was calculated. […] There were 6 compound holes in each group, and the experimental results were presented as the average of 3 experiments. A complete medium containing only cells was used as the blank control, whereas a complete medium without cells was the negative control group. Cisplatin and sorafenib were utilized as the positive control group, and the target compound was the experimental intervention group.
In general terms: Tetrazolium assays rely on reduction of a dye to a coloured formazan, in cell work by metabolically active cells.

The next data set concerns H8 cells. Briefly: MTT cytotoxicity assay, normal cervical epithelial H8 cells. The format is cell-based, human. The following applies: Homo sapiens, 48 h, mean ± SD. The procedure: as §1, §2
The next data set has as its system SiHa cells. Briefly: MTT antiproliferative assay, SiHa cells. To be noted: Homo sapiens, 48 h, mean ± SD. It is filed as cell-based, human. As to the method:
as §1, §2

Another data set relates to HUVEC cells. Briefly: In vitro HUVEC inhibitory assay (MTT). It is filed as cell-based. The following applies: Homo sapiens, 48 h, ± SD. As to the method: as §1, §2
After incubation for 24 h, the cell was collected using centrifugation and washed twice using PBS chilled to 0 °C. Then, the cells were homogenized in RIPA lysis buffer and 1% PMSF, 1% mixed phosphatase inhibitor (Solarbio, Beijing, China). The lysates were incubated on ice for 30 min, intermittently vortexed every 5 min, and centrifuged at 12,000 rpm for 20 min to harvest the supernatants.

The target in data set [2] is T1, VEGFR-2 (Homo sapiens, UniProt P35968).
T1 construct: endogenous in cells; host or cells: HeLa cells
Briefly: VEGFR-2 inhibition test (human p-VEGFR-2 ELISA in HeLa cells). The format is cell-based. The following applies: ± SD, read-out: 48h IC50 VEGFR-2 inhibitory effect.
Description: Specimens, standards, and HRP-labeled detection antibodies were added sequentially to the pre-covered microtiter wells containing phosphorylated vascular endothelial growth factor receptor 2 (p-VEGFR2) antibodies, warmed, and washed thoroughly. The substrate TMB was added for color development. This substrate is converted to blue using peroxidase catalysis to a final yellow color due to the action of acid. […] Curve fitting was performed using SPSS 23.0 software to calculate IC50.

Data set [3] has as its system VEGFR-2. The following applies: read-out: IC50 against VEGFR-2; cited from earlier work.
Another data set deals with HepG2 cells. The following applies: cited from earlier work.
The test system of a further data set is MCF-7 cells. The following applies: cytotoxic effect; cited from earlier work.
The subject of the next data set is PC-3 cells. To be noted: cytotoxic effect; cited from earlier work.
For data set [4], the system named is HeLa cells. Briefly: Apoptosis analysis, Annexin V-FITC/PI flow cytometry. To be noted: 4 μM, 24 h. The format is cell-based, human. As to the method: After incubation, cells were harvested and incubated using […] of Annexin-V/FITC (BD, America) in binding buffer (10 mM HEPES, 140 mM NaCl, and 2.5 mM CaCl2 at pH 7.4) at room temperature for 15 min. The PI solution was then added to the medium for another 10 min incubation. Almost 10,000 events were collected for each sample and analyzed using flow cytometry (BD, LSRFortessa, New York, NY, USA). The procedure for the remaining Western blot was the same as in Section 3.3.3.
For orientation: A flow cytometer gives signals particle by particle.

The mark [5] stands for this setting: cisplatin-resistant HeLa/DDP cells, single agent.
Where [6] appears, read: MTT, mean ± SD, read-out: 48h IC50 HeLa.
Where [7] appears, read: single agent, read-out: 48h IC50 HeLa (Table 4).

Where two headings read alike, the source gives them in different places.

What is called melting point is the temperature, or range, at which the solid turns liquid.

T1 sequence (P35968 20-1356): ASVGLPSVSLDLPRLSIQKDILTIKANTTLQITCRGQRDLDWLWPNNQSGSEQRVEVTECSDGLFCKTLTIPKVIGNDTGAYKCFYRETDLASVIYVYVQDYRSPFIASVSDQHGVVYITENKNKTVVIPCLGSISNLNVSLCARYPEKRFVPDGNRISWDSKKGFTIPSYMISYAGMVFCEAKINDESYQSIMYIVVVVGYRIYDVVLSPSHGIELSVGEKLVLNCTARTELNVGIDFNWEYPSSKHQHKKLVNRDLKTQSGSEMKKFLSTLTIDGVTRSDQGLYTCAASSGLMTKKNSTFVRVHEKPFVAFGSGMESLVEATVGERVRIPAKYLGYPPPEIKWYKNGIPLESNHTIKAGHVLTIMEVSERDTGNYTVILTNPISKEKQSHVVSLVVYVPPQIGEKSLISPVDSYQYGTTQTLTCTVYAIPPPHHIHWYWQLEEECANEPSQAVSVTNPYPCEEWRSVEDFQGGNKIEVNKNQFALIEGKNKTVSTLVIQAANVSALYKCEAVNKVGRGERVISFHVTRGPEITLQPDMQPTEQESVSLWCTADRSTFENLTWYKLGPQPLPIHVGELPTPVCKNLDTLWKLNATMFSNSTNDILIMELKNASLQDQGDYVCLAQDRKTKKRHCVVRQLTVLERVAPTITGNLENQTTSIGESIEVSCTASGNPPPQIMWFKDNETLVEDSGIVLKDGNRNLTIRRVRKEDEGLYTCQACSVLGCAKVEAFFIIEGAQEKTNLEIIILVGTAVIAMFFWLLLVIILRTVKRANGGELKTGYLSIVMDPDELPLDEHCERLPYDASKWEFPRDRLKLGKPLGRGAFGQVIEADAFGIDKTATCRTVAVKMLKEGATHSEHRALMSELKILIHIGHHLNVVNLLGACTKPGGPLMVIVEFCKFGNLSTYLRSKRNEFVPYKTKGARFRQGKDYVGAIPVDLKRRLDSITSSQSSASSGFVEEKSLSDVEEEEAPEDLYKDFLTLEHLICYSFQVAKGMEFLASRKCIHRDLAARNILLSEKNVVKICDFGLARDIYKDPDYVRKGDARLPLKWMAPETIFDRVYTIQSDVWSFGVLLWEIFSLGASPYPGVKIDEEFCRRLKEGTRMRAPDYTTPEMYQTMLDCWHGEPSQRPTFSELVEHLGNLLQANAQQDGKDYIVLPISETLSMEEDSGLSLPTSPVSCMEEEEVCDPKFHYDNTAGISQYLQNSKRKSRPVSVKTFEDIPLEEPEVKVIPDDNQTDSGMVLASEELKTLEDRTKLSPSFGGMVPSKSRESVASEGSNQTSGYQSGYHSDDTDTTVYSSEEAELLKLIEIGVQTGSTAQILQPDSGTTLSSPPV
Description for HeLa/DDP cells: The cytotoxicity of the target compounds were measured in vitro using the MTT assay. Cells grown in the logarithmic phase were counted and seeded in 96-well cell culture plates (5 × 10^3 cells per well) for 24 h to allow attachment of cells to the wall of the plate. […] Next, 20 μL of 5 mg.mL^−1 MTT solution was added to each well and cultured for 4 h. The old solution was discarded, replaced with 150 μL DMSO solution per well, and shaken for 10 min. The OD value was measured under 490 nm, and the inhibition rate was calculated. The nonlinear regression fitting of the cell growth rate was carried out using SPSS 23.0 software, and the IC50 of the compound was calculated. […] A complete medium containing only cells was used as the blank control, whereas a complete medium without cells was the negative control group.
To reduce the adverse reactions caused by the fixation of drug resistance reversal agents, the concentration that reduces the proliferation rate of tumor cells by less than 10% was selected.

As to `O=C(/C=C/c1ccccc1)c1ccccc1` [Chalcone], in the data set with HeLa/DDP cells (single agent), the “RI (resistance index)” value turned out to be 1.23. The IC50 in the data set on HeLa/DDP cells (setting [5]) is 91 ± 6.22 µM; in the data set on HeLa cells [1] (setting [6]) it was 74 ± 4.48 µM; in the data set on HeLa cells [1] (setting [7]), 74 ± 4.48 µM; in the data set with H8 cells, 77.7 ± 6.85 µM; in the data set on SiHa cells, 66.5 ± 2.88 µM; in the data set on HUVEC cells, 77.5 ± 4.2 µM. In addition, at VEGFR-2 [2], the IC50 is over 20 µM.

For `COc1cc(O)c(C(=O)/C=C/c2ccc(CN3CCC(C)CC3)cc2)cc1CN1CCCC1` [6k, (E)-1-(2-hydroxy-4-methoxy-5-(pyrrolidin-1-ylmethyl)phenyl)-3-(4-((4-methylpiperidin-1-yl)methyl)phenyl)prop-2-en-1-one], in the data set on HeLa/DDP cells (single agent), the “RI (resistance index)” value came to 1.13. Moreover, the IC50 in the data set on HeLa/DDP cells (setting [5]) was found to be 17.3 ± 2.07 µM; with HeLa cells [1] (setting [6]) it was 15.22 ± 0.08 µM; in the data set on HeLa cells [1] (setting [7]), 15.22 ± 0.08 µM; with H8 cells, 30.1 ± 0.44 µM; in the data set on SiHa cells it was 24.83 ± 0.17 µM; with HUVEC cells it was 20.2 ± 1.19 µM. Further, on VEGFR-2 [2], the IC50 turned out to be 1.67 ± 0.18 µM.

In the case of `CNC(=O)c1cc(Oc2ccc(C(=O)/C=C/c3cc(OC)c(OC)c(OC)c3)cc2)ccn1` [compound 8], the IC50 in the data set on VEGFR-2 [3] is 3.2 µM; in the data set with HepG2 cells (cytotoxic effect, HepG2 cells), 0.56 ± 0.83 µM; in the data set on MCF-7 cells it was 3.88 ± 1.03 µM; in the data set with PC-3 cells it was 3.15 ± 0.81 µM. In addition, the “cytotoxic activity relative to sorafenib” value in the data set on HepG2 cells (HepG2, MCF-7 and PC-3 cells) is 1.03–6.14 times.

Turning to `COc1cc(O)c(C(=O)/C=C/c2ccc(CN3CCC(C)CC3)cc2)cc1CN1CCOCC1` [6o, (E)-1-(2-hydroxy-4-methoxy-5-(morpholinomethyl)phenyl)-3-(4-((4-methylpiperidin-1-yl)methyl)phenyl)prop-2-en-1-one], the melting point lay in the range of 104.2 to 105.4 °C. For the same molecule, the IC50 with HeLa cells [1] (setting [6]) is 65.8 ± 1.36 µM. Also, in the data set on H8 cells, the IC50 came out at 80 ± 8.92 µM. The same molecule gave an IC50 with SiHa cells of 63.7 ± 2.18 µM.

Regarding `CNC(=O)c1cc(Oc2ccc(C(=O)/C=C/c3ccccc3)cc2)ccn1` [compound 9], the IC50 in the data set on VEGFR-2 [3] was 1.1 µM.

Turning to `CNC(=O)c1cc(Oc2ccc(C(=O)/C=C/c3cccc(Br)c3)cc2)ccn1` [compound 7], the IC50 in the data set on VEGFR-2 [3] is 0.72 µM.

In the case of `CNC(=O)c1cc(Oc2ccc(NC(=O)Nc3ccc(Cl)c(C(F)(F)F)c3)cc2)ccn1` [Sorafenib, reference compound], the IC50 with HeLa/DDP cells (HeLa) came out at 12.4 ± 0.54 µM; in the data set with HeLa cells [1] (setting [6]), 10.8 ± 0.15 µM; in the data set on HeLa cells [1] (setting [7]), 10.8 ± 0.15 µM; with H8 cells, 18.4 ± 1.04 µM; with SiHa cells it was 15 ± 1.2 µM; in the data set on HUVEC cells it was 9.2 ± 1.22 µM. This molecule also had a proapoptotic rate with HeLa cells [4] of 31.7%.

These data come from PMC10254235, “Design, Synthesis, and Anti-Cervical Cancer and Reversal of Tumor Multidrug Resistance Activity of Novel Nitrogen-Containing Heterocyclic Chalcone Derivatives” (Molecules, 2023).
